Results published in EP1377579B1 (Aventis Pharmaceuticals Inc., priority 2000, dated 2002).

Assays:
[1] = Bioavailability experiment in mice given single intravenous cassette doses; settings: for Conc. (ng/ml) in plasma / Conc. in plasma: mice; for Conc. (ng/ml) in plasma: BLQ = below assay quantification limit; for Cls: mice plasma, single intravenous cassette dose; for Conc. in plasma: single 15 mg/kg intravenous cassette dose (3 mg/kg/compound), Cassette #3, 24 h, BLQ = below assay quantification limit (approximately 1 ng/ml)
[2] = system: HL-60; assay: In vitro proliferation assay (MTT), HL-60; type: cell-based; settings: Homo sapiens, HL-60; MTT assay; value (SD, n) where given; read-out: HL-60 Leuk. (IC50 µM)
Method in brief: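 Overnight-recovered cultures (1000–2500 cells/well) were treated with compound for 3 days and then given MTT at 37 C for 2–4 hr. Dye was extracted with DMSO and read at 570 nm. IC50s were fitted to the absorbance-versus-concentration data.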

[3] = biological target: cdk2/cyclin E (Homo sapiens, UniProt P24941); assay: Cyclin-dependent kinase assay, cdk2/cyclin E; settings: CDK2 IC50, nM, GST-pRb substrate, 10 µM ATP
[4] = system: HL-60 Human Leukemia; assay: HL-60 human leukemia xenograft in nude mice; type: in vivo; design: key: tumor volume = ½(a × b²) from caliper diameters, in mm^3; settings: Table 4
Description: (§1) Antitumor efficacy is assessed using two subcutaneous human tumor xenograft models. The studies are performed using conventional assay techniques. Briefly, HL-60 (leukemia, 5 x10^5 cells) and PC-3 (prostate, 5 x 10^6 cells) tumor cells are injected subcuateously into nude mice (Crl-CD1-Br-nu, Charles River Laboratory, Wilmington, MA). Dosing with compounds began when tumors reached 50 to 100 mm^3. The dose route/schedule for the test compounds is ip/qld (5x/wk). The test doses are set based on the maximum tolerated dose (MTD). […] The test doses for the efficacy studies are set at 1/3rd the MTD (low dose) and the MTD (high dose). The results are shown in Tables 4 and 5 (HL-60, leukemia) (PC-3, prostate cancer). The length of the treatment phase is dependent on the tumor growth rate for the two models. This treatment phase is typically about 3 weeks for the HL-60 model and about 5 weeks for the PC-3 model. […] Dosing with flavopiridol is for the same time frame as for the experimental compounds in both xenograft models. Tumor volume (twice weekly) and body weights (once weekly) are monitored throughout the course of the treatment phase of the experiment. Tumor sizes are measured by external caliper measurements of protruding tumor. Volumes are calculated using the following formula: volume =½ (a x b2), where b is the smaller of two perpendicular diameters.

[5] = system: PC-3 Human Prostate Tumors; assay: PC-3 human prostate tumor xenograft in nude mice; type: in vivo; design: unit not given here; settings: Table 4
Description: as §1

[6] = Red blood cell binding, human whole blood; type: in vitro ADME; settings: 30 minutes at 37°C, 500 ng/ml
Description: Compounds, including one positive control, are assessed for red blood cell (RBC) uptake, using a modified procedure based on the protocol reported in Sun, J.X.S., et al. High-performance liquid chromatographic analysis, plasma protein binding and red blood cell partitioning of phenprobamate. Biopharmaceutics and Drug Disposition, 8 (1987) 341-351.
Briefly, RBC uptake is evaluated by comparison of the levels in spiked plasma (n=3) and plasma isolated from spiked whole blood (n=3). Compounds are incubated with human and mouse whole blood, respectively, for 30 minutes at 37°C using a nominal concentration of 500 ng/ml. Following centrifugation, the plasma is removed and submitted for analysis. Each compound is also spiked into blank plasma at a nominal concentration of 500 ng/ml, and submitted for analysis. Levels in the two plasma samples (Cp' and Cp in the equation below) and the blood hematocrit are used to determine the red blood cell to plasma ratio (Crbc/Cp). (Crbc)/(Cp) = (Cpʹ)/(Cp•H)-((1-H))/(H) [formula] In equation 1, Cp' is the level of drug in the spiked "blank" plasma, Cp is the level of drug in the plasma of spiked whole blood, and H is the hematocrit. The hematocrit values are determined as 0.4 for human whole blood and 0.41 for mouse whole blood. The samples are analyzed with ESI LC/MS, using positive ion detection with an internal standard.
The red blood cell to plasma ratio is determined for each compound using equation 1. Tables 6 and 7 summarize the respective mean Crbc/Cp values and standard deviations for mouse and human whole blood, respectively, in descending order based on the red blood cell to plasma ratio, where"*" denotes Positive Control, and "ND" denotes Not Determined. MDL 108552 is included as a positive control for red blood cell uptake. Table 6. Red Blood Cell to Plasma Ratio for compounds in mouse whole blood

[7] = system: PC-3; assay: In vitro proliferation assay (MTT), PC-3; type: cell-based, human; settings: Homo sapiens, PC-3, MTT assay; value (SD, n) where given; read-out: PC-3 Prostate (IC50 µM)
Method in brief: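 Tetrazolium (MTT) reduction measures live cells remaining after 3 days with test compound, following overnight attachment at 1000–2500 cells/well. Dye is taken up in DMSO and read at 570 nm.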

[8] = Cassette #1, single 18 mg/kg intravenous cassette dose, 24 h
[9] = 3 mg/kg/compound (18 mg/kg Total Dose), Cassette #1
[10] = 3 mg/kg/compound (15 mg/kg Total Dose), Cassette #3

SMILES | Conc. (ng/ml) in plasma [1, 8] | Cls [1, 9] | IC50 [2] | IC50 [3] | Mean Red Blood Cell to Plasma Ratio [6] | IC50 [7] | Cls [1, 10] | Conc. in plasma [1] | Conc. (ng/ml) in plasma ([1]; Cassette #2, single 18 mg/kg intravenous cassette dose, 8 h, Mean ± SD) | Conc. (ng/ml) in plasma ([1]; Cassette #2, single 18 mg/kg intravenous cassette dose, 24 h) | Cls ([1]; 3 mg/kg/compound (18 mg/kg Total Dose), Cassette #2) | HL60 Mean Vol. ± SD ([4]; dose 3 mg/kg ip) | HL60 Mean Vol. ± SD ([4]; dose 10 mg/kg ip) | PC-3 Mean Vol. ± SD ([5]; dose 3 mg/kg ip) | PC-3 Mean Vol. ± SD ([5]; dose 10 mg/kg ip) | HL60 Mean Vol. ± SD ([4]; dose 0.3 mg/kg ip) | HL60 Mean Vol. ± SD ([4]; dose 1 mg/kg ip) | PC-3 Mean Vol. ± SD ([5]; dose 0.3 mg/kg ip) | PC-3 Mean Vol. ± SD ([5]; dose 1 mg/kg ip)
Cl.Cl.N#Cc1ccc(S(=O)(=O)N2CCC(Nc3nc(N[C@H]4CC[C@H](N)CC4)nc4c3ncn4C3CCCC3)CC2)cc1 [compound 109, trans-N^2-(4-Amino-cyclohexyl)-9-cyclopentyl-N^6-[1-(4-cyano-benzenesulfonyl)-piperidin-4-yl]-9H-purine-2,6-diamine dihydrochloride] | BLQ | 45.1 mL/min/kg | 0.12 µM | 45 nM | 5.0 | 0.32 µM |  |  |  |  |  | 2597 ± 2240 | 3466 ± 3730 | 1807 ± 1388 | 979 ± 734 |  |  |  | 
COC(=O)c1ccccc1S(=O)(=O)N1CCC(Nc2nc(N[C@H]3CC[C@H](N)CC3)nc3c2ncn3C2CCCC2)CC1.Cl.Cl [compound 111, trans-2-{4-[2-(4-Amino-cyclohexylamino)-9-cyclopentyl-9H-purin-6-ylamino]-piperidine-1-sulfonyl}-benzoic acid methyl ester dihydrochloride] | BLQ | 34.2 mL/min/kg | 0.38 µM | 9 nM | 1.2 | 0.76 µM |  |  |  |  |  | 3798 ± 2431 | 2387 ± 1282 | 1083 ± 704 | 2114 ± 1320 |  |  |  | 
Cl.Cl.N[C@H]1CC[C@H](Nc2nc(NC3CCN(S(=O)(=O)c4cccc(C(F)(F)F)c4)CC3)c3ncn(C4CCCC4)c3n2)CC1 [compound 112, trans-N^2-(4-Amino-cyclohexyl)-9-cyclopentyl-N^6-[1-(3-trifluoromethyl-benzenesulfonyl)-piperidin-4-yl]-9H-purine-2,6-diamine dihydrochloride] |  |  | 0.18 µM | 48 nM | 3.7 | 0.16 µM | 34.2 mL/min/kg | BLQ |  |  |  |  |  |  |  | 5413 ± 2845 | 4170 ± 3111 | 1302 ± 869 | 1155 ± 872

Further lines, with some results ahead:

Conc. (ng/ml) in plasma [1, 8] | Cls [1, 9] | IC50 [2] | IC50 [3] | Mean Red Blood Cell to Plasma Ratio [6] | IC50 [7] | Cls [1, 10] | Conc. in plasma [1] | Conc. (ng/ml) in plasma ([1]; Cassette #2, single 18 mg/kg intravenous cassette dose, 8 h, Mean ± SD) | Conc. (ng/ml) in plasma ([1]; Cassette #2, single 18 mg/kg intravenous cassette dose, 24 h) | Cls ([1]; 3 mg/kg/compound (18 mg/kg Total Dose), Cassette #2) | SMILES | HL60 Mean Vol. ± SD ([4]; dose 3 mg/kg ip) | HL60 Mean Vol. ± SD ([4]; dose 10 mg/kg ip) | PC-3 Mean Vol. ± SD ([5]; dose 3 mg/kg ip) | PC-3 Mean Vol. ± SD ([5]; dose 10 mg/kg ip) | HL60 Mean Vol. ± SD ([4]; dose 0.3 mg/kg ip) | HL60 Mean Vol. ± SD ([4]; dose 1 mg/kg ip) | PC-3 Mean Vol. ± SD ([5]; dose 0.3 mg/kg ip) | PC-3 Mean Vol. ± SD ([5]; dose 1 mg/kg ip)
 |  | 0.03 µM | 51 nM | 2.8 | 0.26 µM | 49.1 mL/min/kg | BLQ |  |  |  | Cl.Cl.N[C@H]1CC[C@H](Nc2nc(NC3CCN(C(=O)Nc4ccc(C(F)(F)F)cc4)CC3)c3ncn(C4CCCC4)c3n2)CC1 [compound 149, trans-4-[2-(4-Amino-cyclohexylamino)-9-cyclopentyl-9H-purin-6-ylamino]-piperidine-1-carboxylic acid (4-trifluoromethyl-phenyl)-amide dihydrochloride] | 2505 ± 2104 |  | 2089 ± 1382 |  |  | 4010 ± 2371 |  | 1084 ± 929
 |  | 0.06 µM | 30 nM | 4.1 | 0.23 µM |  |  | BLQ^a | BLQ^a | 31.6 mL/min/kg | CCOC(=O)c1ccc(NC(=O)N2CCC(Nc3nc(N[C@H]4CC[C@H](N)CC4)nc4c3ncn4C3CCCC3)CC2)cc1.Cl.Cl [compound 154, trans-4-[(1-{4-[2-(4-Amino-cyclohexylamino)-9-cyclopentyl-9H-purin-6-ylamino]-piperidin-1-yl}-methanoyl)-amino]-benzoic acid ethyl ester dihydrochloride] | 2641 ± 3024 | 2950 ± 1929 | 1385 ± 873 | 1707 ± 721 |  |  |  | 
